From patent publication US11161876B2, “Anti-inflammatory nanofibers” (Northwestern University, priority 2015, dated 2021)
* marks the point of attachment. C16 alkyl = CCCCCCCCCCCCCCCC*

Assays:
[1] = system: Rat Bladder Augmentation Model; experiment: Bladder stone formation in regenerating bladders; assay type: in vivo; settings: for Bladder Stone Formation (shown as percentage of animals forming stones): 5 weeks post-augmentation; for size of bladder stones formed, in words: rat, in vivo
Source text: Bladder stone formation can be caused by a myriad of factors including those based upon diet as well as genetic makeup and underlying bladder conditions (refs. 57,58; herein incorporated by reference in its entirety).
(§1) Athymic female rats (weighing ˜200 g and 8-10 weeks old; National Cancer Institute Animal Production Program) underwent bladder augmentation (ref. 15; herein incorporated by reference in its entirety). Athymic rats were chosen for this study to solely examine the innate immune response to inflammation without influence of the adaptive immune response. In order to induce anesthesia, animals were given intraperitoneal injections of 60 mg/kg ketamine and 5 mg/kg xylazine. A second injection consisting of Buprenex (1 mg/kg) was administered subcutaneously to alleviate any pain/discomfort during and following surgical procedures. An approximate 1.5 cm midline vertical skin incision was created to expose the abdominal fascia and muscles. This was immediately followed by the separation of the wall leading to the identification of the bladder. An approximate 70% supratrigonal cystectomy was performed from anterior to posterior creating a clamshell. Immediately prior to bladder augmentation procedures, samples of the pro-inflammatory biological scaffold, small intestinal submucosa (SIS (0.5×0.5 cm); Cook Biotech.) (refs. 12,13,16; herein incorporated by reference in their entireties) were thoroughly dip-coated separately in one of the previously described AIF-PAs following gelation procedures. The sections of SIS were dip-coated for approximately 20 seconds and allowed to adhere to the SIS for an additional 30 seconds. Dip-coating procedures were performed at room temperature in air. The cystectomized bladder defect was then augmented with: 1) SIS (non-AIF-PA coated SIS; n=8 animals over both time-points); 2) AIF-PA1 coated SIS (denoted as SIS/AIF-PA1; n=11 animals over both time-points); 3) AIF-PA2 coated SIS (denoted as SIS/AIF-PA2; n=8 animals over both time-points); 4) AIF-PA3 coated SIS (denoted as SIS/AIF-PA3; n=3); 5) AIF-PA4 coated SIS (denoted as SIS/AIF-PA4; n=3 animals); 6) AIF-PA5 coated SIS (denoted as SIS/AIF-PA5; n=3 animals); and 7) AIFC-PA6 coated SIS (denoted as SIS/AIFC-PA6; n=9 animals over both time-points). The bladder was finally covered with omentum after being closed in a watertight manner utilizing 7-0 polyglactin suture. The abdominal wall was then closed in a single layer with 5-0 ethibond running suture and the skin re-approximated with 9 mm autoclips. Each group was sacrificed at 10 day and 5 week time-points.

[2] = system: Rat Bladder Augmentation Model; experiment: Bladder capacity measurement of augmented bladders; assay type: in vivo; settings: 5 weeks post-augmentation vs pre-surgery; means ± SE
Description: Athymic female rats (weighing ˜200 g and 8-10 weeks old; National Cancer Institute Animal Production Program) underwent bladder augmentation (ref. 15; herein incorporated by reference in its entirety). Athymic rats were chosen for this study to solely examine the innate immune response to inflammation without influence of the adaptive immune response. In order to induce anesthesia, animals were given intraperitoneal injections of 60 mg/kg ketamine and 5 mg/kg xylazine. A second injection consisting of Buprenex (1 mg/kg) was administered subcutaneously to alleviate any pain/discomfort during and following surgical procedures. An approximate 1.5 cm midline vertical skin incision was created to expose the abdominal fascia and muscles. This was immediately followed by the separation of the wall leading to the identification of the bladder. An approximate 70% supratrigonal cystectomy was performed from anterior to posterior creating a clamshell. Immediately prior to bladder augmentation procedures, samples of the pro-inflammatory biological scaffold, small intestinal submucosa (SIS (0.5×0.5 cm); Cook Biotech.) (refs. 12,13,16; herein incorporated by reference in their entireties) were thoroughly dip-coated separately in one of the previously described AIF-PAs following gelation procedures. The sections of SIS were dip-coated for approximately 20 seconds and allowed to adhere to the SIS for an additional 30 seconds. Dip-coating procedures were performed at room temperature in air. […]
The bladders of anesthetized athymic rats were exposed through the abdomen as previously described. […] Continuous reading of the transvesical pressure was measured and plotted using LabChart 7.3 software (AD Instruments). […] Bladder capacity was measured by a modified protocol (ref. 13; herein incorporated by reference in its entirety). […]

IL-13 = IL-13 expression in regenerated bladder tissue (immunofluorescence); assay type: in vivo, rat; settings: for Cytokine expression (shown as percentage of cells staining positive) Anti-inflammatory IL-13: 5 weeks post-augmentation, means ± SE; for percentage of cells staining positive for IL-13: 10 days post-augmentation
Description: as §1
(§2) Tissue sections comprised of SIS alone, SIS/AIF-PA1, SIS/AIF-PA2, and SIS/AIF-PA6 augmentations were subjected to immunofluorescence staining by initially undergoing antigen retrieval which consisted of 15 min of boiling in citrate buffer (0.01M citrate solution, pH 6.0 with 0.05% Tween-20) followed by cooling at room temperature for approximately 20 minutes. The antibody staining process consisted of a blocking step for 15 min in bovine serum albumin (BSA, 5 mg/ml) followed by a 40 minutes incubation at room temperature with the primary antibody. After washing with DPBS, slides were incubated for 30 min with a secondary antibody and eventually rinsed with DPBS and air dried. Slides were mounted with Vectashield (Vector Laboratories). Primary antibodies were directed against epitopes for the inflammatory markers CD68 (macrophage) (refs. 18,19; herein incorporated by reference in their entireties) MPO (neutrophil) (ref. 20; herein incorporated by reference in its entirety) or the inflammation-related proteins IL1β, TNFα, IL-10, IL-13, CD206 (M2 macrophage) (refs. 21-25; herein incorporated by reference in their entireties) and CD86 (M1 macrophage) (ref. 26; herein incorporated by reference in its entirety). Antibodies directed against the ECM in regenerating bladder tissue (including COL4A3 and fibronectin) were also utilized. Alexa Red 555 or FITC conjugated secondary antibodies (Molecular Probes) were utilized for visualization (ref. 15; herein incorporated by reference in its entirety). […]

[3] = system: Rat Bladder Augmentation Model; experiment: Bladder tissue collagen quantification (Masson's Trichrome); assay type: in vivo; settings: for mean level of collagen in regenerated bladder tissue: means±SE; for collagen levels, in words: 10 days post-augmentation, compared between groups
Description: as §1
Explanted bladder specimens encompassing the entire thickness of the bladder were isolated immediately following euthanasia and processed (ref. 15; herein incorporated by reference in its entirety). Specimens were fixed in a 10% buffered formalin phosphate (Fisher Scientific, Inc.) solution followed by a series of graded ethanol exchanges then embedded in paraffin (Fisher Scientific). Embedded tissues were sectioned onto glass slides at a thickness of 10 μm using a RM2125 RT Microtome (Leica) onto glass slides and subjected to staining with Masson's Trichrome (Sigma-Aldrich Corp.) reagent. The paraffin was removed from tissue containing slides using a hot plate at 62° C. for 6 minutes and was followed by treatment with xylenes, graded ethanol washes and DI water. Slides were placed in Bouin's solution (Sigma-Aldrich Corp.) for approximately 15 min then rinsed under running tap water. The samples were then stained 5 minutes with Hematoxylin and rinsed with running water and subsequently stained with Scarlet-Acid Fuchsin (Sigma-Aldrich Corp.). Slides were rinsed again with DI water and placed into a mixture of PTA/PMA, followed by Aniline Blue solution and a 1% acetic acid wash. Finally, slides were placed in 95-100% ethanol and rinsed in xylene. Following air drying, a coverslip was placed over the specimen sample and secured with Permaslip (Alban Scientific Inc).
Bladder tissue specimens were evaluated for collagen content (refs. 13,15,17; herein incorporated by reference in their entireties). […]

CD68+ macrophages = experiment: Immunofluorescence quantification of CD68+ macrophages in regenerated bladder tissue; assay type: in vivo, rat
Description: as §1, §2

For “C16-VVVAAAEEEHDMNKVLDL (SEQ ID NO:2) ({C16 alkyl}-VVVAAAEEEHDMNKVLDL-NH2) [SIS/AIF-PA2, anti-inflammatory peptide amphiphile, tested dip-coated on small intestinal submucosa (SIS) scaffold]”, the “Bladder Stone Formation (shown as percentage of animals forming stones)” value [1] was 16.7 percentage, the “size of bladder stones formed, in words” value [1] was “a fraction of the size found in control animals” and the “Bladder Capacity Recovery” value [2] was 104.4 ± 6.7%. For the same substance, the “Cytokine expression (shown as percentage of cells staining positive) Anti-inflammatory IL-13” value (IL-13) was 32.0 ± 1.8 percentage, the “percentage of cells staining positive for IL-13” value (from here on “percentage … for IL-13”) (IL-13) was 41.2±2.2% and the “mean level of collagen in regenerated bladder tissue” value (“mean level of collagen” for short) ([3]; 5W post-augmentation) was 58.0±0.6%. For the same substance, the “mean level of collagen” value ([3]; 10D post-augmentation) was 58.6±0.4%, the “collagen levels, in words” value [3] was “lesser degrees of collagen” and the “percentage of cells CD68+” value (CD68+ macrophages; 5 weeks post-augmentation) was 16.5±1.6%. For the same substance, the “percentage of cells CD68+” value (CD68+ macrophages; 10 days post-augmentation) was 23.1±3.3%.

In the case of “C16-VVVAAAEEEKLMSQKMVD (SEQ ID NO:6) ({C16 alkyl}-VVVAAAEEEKLMSQKMVD-NH2) [SIS/AIFC-PA6, reference compound]”, the “Bladder Stone Formation (shown as percentage of animals forming stones)” value [1] was 42.9 percentage, the “size of bladder stones formed, in words” value [1] was “quite large in size” and the “Bladder Capacity Recovery” value [2] was 105.4 ± 5.1%. For the same substance, the “Cytokine expression (shown as percentage of cells staining positive) Anti-inflammatory IL-13” value (IL-13) was 20.4 ± 2.6 percentage, the “percentage … for IL-13” value (IL-13) was 28.6±3.0% and the “mean level of collagen” value ([3]; 5W post-augmentation) was 68.8±2.7%. The “mean level of collagen” value ([3]; 10D post-augmentation) was 71.5±1.4% and the “percentage of cells CD68+” value (CD68+ macrophages; 5 weeks post-augmentation) was 42.0±2.6%.

For “C16-VVVAAAEEEMQMKKVLDS (SEQ ID NO:1) ({C16 alkyl}-VVVAAAEEEMQMKKVLDS-NH2) [SIS/AIF-PA1, anti-inflammatory peptide amphiphile, tested dip-coated on small intestinal submucosa (SIS) scaffold]”, the “Bladder Stone Formation (shown as percentage of animals forming stones)” value [1] was 25.0 percentage, the “size of bladder stones formed, in words” value [1] was “a fraction of the size found in control animals” and the “Bladder Capacity Recovery” value [2] was 112.1 ± 3.3%. For the same substance, the “Cytokine expression (shown as percentage of cells staining positive) Anti-inflammatory IL-13” value (IL-13) was 26.1 ± 2.7 percentage, the “percentage … for IL-13” value (IL-13) was 48.2±2.8% and the “mean level of collagen” value ([3]; 5W post-augmentation) was 55.0±1.2%. For the same substance, the “mean level of collagen” value ([3]; 10D post-augmentation) was 59.1±1.1%, the “collagen levels, in words” value [3] was “lesser degrees of collagen” and the “percentage of cells CD68+” value (CD68+ macrophages; 5 weeks post-augmentation) was 17.6±1.8%. The “percentage of cells CD68+” value (CD68+ macrophages; 10 days post-augmentation) was 33.4±2.0%.
